This is an account of results in patent US10351586B2, “Cytidine derivative dimers and applications thereof” (CHANGZHOU FANGYUAN PHARMACEUTICAL CO., LTD, priority 2014, dated 2019).

This experiment has as its system HCT-116 human colon cancer cells. As to the kind of experiment: Colony formation inhibition test on HCT-116 human colon cancer cells. The experiment is classed as cell-based. The conditions noted are these: for Number of cell clones on HCT-116, mean / inhibition at 0.05 µM / inhibition at 0.15 µM / inhibition at 0.45 µM: 72 h treatment, then 7-10 days; for inhibition at 0.05 µM / inhibition at 0.15 µM / inhibition at 0.45 µM / IC50: Homo sapiens; for inhibition at 0.05 µM / inhibition at 0.15 µM / inhibition at 0.45 µM: HCT-116, read-out: % inhibition (colony formation inhibition rate); for IC50: HCT-116 cells, dose-response 50, 150, 450 nM, read-out: IC50 value (colony formation inhibition, FIG. 7). As to the method: 1. The colony formation inhibition test was used to evaluate the effect of four exemplary candidate compounds (D1, D2, D3, and D4) having concentrations of 50 nM, 150 nM and 450 nM on inhibiting cell proliferation of HCT-116 human colon cancer cells line.
2. Experiment material includes cell lines. HCT-116 human colon cancer cell line was purchased from the Chinese Academy of Sciences Shanghai Cell Resource Center, Cat # TCHu 99.
3. Reagent preparation includes HCT-116 human colon cancer cell culture medium, e.g., Dulbecco's Modified Eagle's medium (DMEM) medium with 10% fetal bovine serum (FBS). Compound solutions were prepared by dissolving and diluting the above synthesized compounds in dimethyl sulfoxide (DMSO) to a final concentration of about 100 μM.
Cell staining solution was prepared including 0.5% crystal violet solution prepared using absolute or anhydrous ethanol, and stored in dark. Before staining, the solution was mixed with phosphate buffered saline (PBS) buffer solution by volume ratio of 1:4 as the cell staining solution.
4. Cell culture: cells in logarithmic growth phase were collected, counted, and resuspended in complete culture medium. The cell concentration was adjusted to an appropriate concentration, 6-well culture plates were seeded, with about 300 cells and 1.8 mL of culture medium in each well. Cells were incubated for about 5 hours in an incubator at about 37° C. and about 100% relative humidity and under 5% CO2.
5. Cell colony formation inhibition test and data processing were performed including, for example, (a)-(i) as follows.
(a) Cells in logarithmic growth phase were collected and counted. The cells were re-suspended in culture medium containing 5% FBS, and counted. Six-well plates were seeded according to a rate of 300 cells per well. Cells were incubated for about 5 hours in an incubator at about 37° C. with 100% relative humidity and under 5% CO2.
(b) The compounds were diluted with culture medium (containing 5% FBS) to be concentrations of about 0.5 μM, 1.5 μM and 4.5 μM. Adding the compounds to cells in 200 μL per well, the final concentrations of the compounds were about 50 nM, 150 nM and 450 nM. Each concentration point was repeatedly tested for three times.
(c) Cells were incubated for about 72 hours in an incubator at 37° C. with 100% relative humidity and under 5% CO2. (d) The culture medium from the plates (the culture medium containing the compound(s) was aspirated. The plates were rinsed with Hank's Balance Salt Solution (HBSS) twice, and replaced with fresh culture medium (DMEM medium with 15% FBS).
(e) Cells were incubated for about 7-10 days in an incubator at about 37° C. and 100% relative humidity and under 5% CO2, until the formation of visible cloned plaques. (f) The culture medium was aspirated from the plates. The plates were rinsed twice with PBS solution. (g) The residual PBS was absorbed and removed, and ethanol was added at 1 mL per plate, fixing for 30 minutes.
(h) Ethanol was absorbed and removed, and cell staining solution was added, stained for 3 minutes. (i) The staining solution was aspirated. After rinsing three times with PBS, the cells were counted.
Data processing was performed. Cloning formation efficiency=[As/Ac]×100%; and colony formation inhibition rate=1−cloning formation efficiency, where As denotes number of cell colonies in compound-treated group (cells+compounds to be tested), and Ac denotes number of cell colonies in negative control (without treating with compound) (cells+1% DMSO).

The term inhibition denotes the percentage by which the read-out fell short of the control. Usually IC50 stands for the concentration that gives 50% inhibition.

`CCCCOC(=O)Nc1ccn([C@H]2O[C@@H](COC(=O)CCC(=O)OC[C@H]3O[C@@H](n4ccc(NC(=O)OCCCC)nc4=O)C(F)(F)[C@@H]3O)[C@H](O)C2(F)F)c(=O)n1` (stereo in doubt) [Compound D2, 1,5-di-[4-N-(n-butoxycarbonyl)-2′-deoxy-2′,2′-difluoro-cytidine]glutarate]: the half-maximal inhibitory concentration (IC50) was roughly 227 nM. In addition, where the note is “50 nM”, the “Number of cell clones on HCT-116, mean” value was found to be 243 and the inhibition at 0.05 µM was determined as 4.7%. Where the note is “150 nM”, the “Number of cell clones on HCT-116, mean” value is given as 191 and the inhibition at 0.15 µM stood at 25.1%. Besides, for the setting “450 nM”, the “Number of cell clones on HCT-116, mean” value came out at 36 and the inhibition at 0.45 µM was determined as 85.9%.

With `O=C(CCCC(=O)OC[C@H]1O[C@@H](n2ccc(NC(=O)OCc3ccccc3)nc2=O)C(F)(F)[C@@H]1O)OC[C@H]1O[C@@H](n2ccc(NC(=O)OCc3ccccc3)nc2=O)C(F)(F)[C@@H]1O` [Compound D3, 1,5-di-[4-N-(benzyloxycarbonyl)-2′-deoxy-2′,2′-difluoro-cytidine]glutarate], the half-maximal inhibitory concentration (IC50) was roughly 99.8 nM. Under “50 nM”, the “Number of cell clones on HCT-116, mean” value amounted to 237 and the inhibition at 0.05 µM came to 1.66%. Where the note is “150 nM”, the “Number of cell clones on HCT-116, mean” value was 20 and the inhibition at 0.15 µM is 91.7%. Under “450 nM”, the “Number of cell clones on HCT-116, mean” value is 4 and the inhibition at 0.45 µM is 98.3%.

In the case of `CCCCOC(=O)Nc1ccn(C2OC(COC(=O)CCC(=O)OC[C@H]3O[C@@H](n4ccc(NC(=O)OCc5ccccc5)nc4=O)C(F)(F)[C@@H]3O)C(O)C2(F)F)c(=O)n1` (stereo in doubt) [Compound D4, 1-O-(4-N-(Benzyloxycarbonyl)-gemcitabine)-4-O-(4-N-(n-Butoxycarbonyl)-gemcitabine)-succinate], the IC50 was roughly 112 nM. For the same compound, under “50 nM”, the “Number of cell clones on HCT-116, mean” value was determined as 235 and the inhibition at 0.05 µM amounted to 8.2%. In addition, where the note is “150 nM”, the “Number of cell clones on HCT-116, mean” value worked out at 75 and the inhibition at 0.15 µM was 70.7%. In addition, for the setting “450 nM”, the “Number of cell clones on HCT-116, mean” value was determined as 11 and the inhibition at 0.45 µM turned out to be 95.7%.

Take `CCCCOC(=O)Nc1ccn(C2OC(COC(=O)CCCC(=O)OC[C@H]3O[C@@H](n4ccc(NC(=O)OCCCC)nc4=O)C(F)(F)[C@@H]3OC(=O)OCCCC)C(OC(=O)OCCCC)C2(F)F)c(=O)n1` (stereo in doubt) [Compound D1, 1,5-di-[4-N-(n-butyloxycarbonyl)-3′-O-(n-butoxycarbonyl)-2′-deoxy-2′,2′-difluoro-cytidine]glutarate]: the IC50 is roughly 245 nM. For the same compound, where the note is “50 nM”, the “Number of cell clones on HCT-116, mean” value is reported as 242 and the inhibition at 0.05 µM was found to be 3.58%. Further, where the note is “150 nM”, the “Number of cell clones on HCT-116, mean” value stood at 188 and the inhibition at 0.15 µM is 25.1%. Besides, under “450 nM”, the “Number of cell clones on HCT-116, mean” value is 52 and the inhibition at 0.45 µM is 79.3%.
